Measured values: ChEMBL document CHEMBL4433252, “Bypassing lantibiotic resistance by an effective nisin derivative” (Bioorg Med Chem, 2019)
≈ marks a conversion by molar mass, not a printed value. Calls of active or inactive are those of the source. The calls are words filed in the database; no cut-off is given here.

Assays:
Lactococcus lactis [1] = test: Growth inhibition of Lactococcus lactis NZ9000 transfected with pNZ-Erm plasmid incubated for 5 hrs by spectrophotometry; assay type: functional, organism-based; details: NZ9000, 5 h
Lactococcus lactis [2] = test: Growth inhibition of Lactococcus lactis NZ9000 transfected with Streptococcus agalactiae COH1 NSR incubated for 5 hrs by spectrophotometry; assay type: functional, organism-based; details: NZ9000, 5 h
Lactococcus lactis [3] = test: Growth inhibition of Lactococcus lactis NZ9000 transfected with Streptococcus agalactiae COH1 NSR S236A mutant incubated for 5 hrs by spectrophotometry; assay type: functional, organism-based; details: NZ9000, 5 h
Lactococcus lactis [4] = test: (§1) Resistance index, ratio of IC50 for growth inhibition of Lactococcus lactis NZ9000 transfected with Streptococcus agalactiae COH1 NSR incubated for 5 hrs by spectrophotometry to IC50 for growth inhibition of Lactococcus lactis NZ9000 transfected with pNZ-Erm plasmid incubated for 5 hrs by spectrophotometry; assay type: functional
Lactococcus lactis [5] = test: as §1, with “NSR S236A mutant” for “NSR”; assay type: functional
Staphylococcus aureus [6] = test: Antibacterial activity against Staphylococcus aureus ATCC 29213 assessed as reduction in cell viability incubated overnight; assay type: functional
Enterococcus faecalis [7] = test: Antibacterial activity against Enterococcus faecalis ATCC 29212 assessed as reduction in cell viability incubated overnight; assay type: functional
Lactococcus lactis [8] = test: Induction of pore formation in Lactococcus lactis NZ9000 transfected with Streptococcus agalactiae COH1 NSR assessed as increase in florescence intensity at 30 nM measured after 100 secs by sytox green-based fluorescence assay; assay type: functional, organism-based
Staphylococcus aureus [9] = test: Potency index, ratio of MIC for nisin to MIC for test compound for antibacterial activity against Staphylococcus aureus ATCC 29213 assessed as reduction in cell viability incubated overnight; assay type: functional
Enterococcus faecalis [10] = test: Potency index, ratio of MIC for nisin to MIC for test compound for antibacterial activity against Enterococcus faecalis ATCC 29212 assessed as reduction in cell viability incubated overnight; assay type: functional

C=C(NC(=O)[C@@H](NC(=O)[C@H](Cc1cnc[nH]1)NC(=O)[C@@H](NC(=O)[C@H](CO)NC(=O)[C@@H]1CCCN1C(=O)[C@H](Cc1cnc[nH]1)NC(=O)[C@@H]1CS[C@@H](C)[C@H](NC(=O)[C@H](CCCCN)NC(=O)[C@H](CCSC)NC(=O)[C@H](CC(N)=O)NC(=O)[C@@H]2CS[C@@H](C)[C@H](NC(=O)[C@H](CCCCN)NC(=O)[C@@H]3CS[C@@H](C)[C@H](NC(=O)[C@@H]4CSC[C@H](NC(=O)/C(=C/C)NC(=O)[C@@H](N)[C@@H](C)CC)C(=O)N[C@@H]([C@@H](C)CC)C(=O)NC(=C)C(=O)N[C@@H](CC(C)C)C(=O)N4)C(=O)N4CCC[C@H]4C(=O)NCC(=O)N3)C(=O)NCC(=O)N[C@@H](C)C(=O)N[C@@H](CC(C)C)C(=O)N[C@@H](CCSC)C(=O)NCC(=O)N2)C(=O)N[C@@H](C)C(=O)N[C@@H](CC)C(=O)N1)[C@@H](C)CC)C(C)C)C(=O)N[C@@H](CCCCN)C(=O)O
IC50 (Lactococcus lactis [1]): 5.5 nM
IC50 (Lactococcus lactis [2]): 22.5 nM
IC50 (Lactococcus lactis [3]): 24.1 nM
Ratio IC50 (Lactococcus lactis [4]): 3.5
Ratio IC50 (Lactococcus lactis [5]): 3.5
MIC (Staphylococcus aureus [6]): 10.6 µM (≈ 35.6 µg/mL)
MIC (Enterococcus faecalis [7]): 10.6 µM (≈ 35.6 µg/mL)
Activity (Lactococcus lactis [8]): Active
Ratio (Staphylococcus aureus [9]): 7.8
Ratio (Enterococcus faecalis [10]): 7.8
